US8940909B2, “Indicator platform” (Biosynth AG, priority 2009, dated 2015)
“Also recorded” adds a separate entry of the source.

Assays:
[1] = Water solubility and fluorescence of IO dyes from ester indicators; type: physicochemical; details: above pH 5
Text: Upon further acidification said dyes formed orange colored non-fluorescent precipitates from aqueous solutions. […] Evidently, said dyes are highly acidic in nature and highly fluorescent in deprotonated form.

Eschericha coli (NM1) = assay: MDAB staining of bacterial colonies with indicators I9a, I10a, I11a, I12a on Nutrient Agar, aerobic; type: cell-based; details: for colonial morphology, aerobic conditions: Escherichia coli (b-gal +), aR MDAB, equivalents 1:1, after 48 h of incubation; for Effectiveness of indicator system with MDAB under aerobic conditions: in combination with MDAB
Description: (§1) Indicators were tested with live cultures on Nutrient Agar plates. Nutrient Agar (5 g/l peptone, 5 g/l NaCl, 2 g/l yeast extract, 1 g/l beef extract, 13 g/l agar, pH 7.4) was autoclaved and allowed to cool to 50° C. Then substrates were added to final concentrations of 150 mg/l (from a 20 mg/ml stock solution in DMF). Optionally MDAB was added to a concentration of 1 mM (from a 200 mM stock solution in DMF) and plates were poured. Agar plates were inoculated with cultures of Eschericha coli (NM1) or Salmonella enteritidis (RKI 05/07992) (pre-grown on nutrient broth for 8-18 hours) and aerobically incubated at 37° C.

[2] = test system: Salmonella enteritidis (RKI 05/07992); assay: as above; type: cell-based; details: Salmonella enteritidis (b-gal −); aR MDAB, equivalents 1:1; after 48 h of incubation
Description: as §1

[3] = test system: beta-galactosidase positive Eschericha coli (NM1); assay: IO staining of bacterial colonies on Nutrient Agar (color, fluorescence, localization, growth); as to C: Color of colonies (strength): key: −: absent; +/−: weak; +: strong; ++: very strong; as to F: Fluorescence of colonies (strength): key: −: absent; +/−: weak; +: strong; ++: very strong; as to G: Growth of colonies: key: −: absent; +/−: weak; +: strong; ++: very strong; as to L: Localization of stain on colonies: key: −: absent; +/−: weak; +: strong; ++: very strong; type: cell-based, E. coli; details: 150 mg/l substrate and 100 mg/l IPTG; for F: Fluorescence of colonies (colour) / G: Growth of colonies / L: Localization of stain on colonies / F: Fluorescence of colonies (strength): 24 h; for F: Fluorescence of colonies (colour) / F: Fluorescence of colonies (strength): 366 nm UV; for C: Color of colonies (colour of stain) / C: Color of colonies (strength): 24 h on Nutrient Agar; for G: Growth of colonies / L: Localization of stain on colonies / F: Fluorescence of colonies (strength) / C: Color of colonies (strength): E. coli
Description: (§2) Nutrient Agar (5 g/l peptone, 5 g/l NaCl, 2 g/l yeast extract, 1 g/l beef extract, 13 g/l agar, pH 7.4) was autoclaved and allowed to cool to 50° C. Then indicators were added to final concentrations of 150 mg/l (from a 20 mg/ml stock solution in DMF).
(§3) Optionally IPTG was added to 100 mg/l (from a 100 mg/ml stock solution in H2O) and plates were poured. Agar plates were inoculated with cultures of beta-galactosidase positive Eschericha coli (NM1) or beta-galactosidase negative Salmonella enteritidis (RKI 05/07992) (pre-grown on nutrient broth for 8-18 hours) and incubated at 37° C. Plates were inspected at 16, 20, 24 and 48 hours and pictures were recorded at 18, 24, and 48 hours with a Digistore 2 Image documentation system (CAMAG) under white light.
(§4) A considerable number of indicators molecules (Table IVa, IVb) and a selection of labile groups (Table IVc) were tested with various microbial species producing different biomarker enzymes (external stimuli, eS). The color of stains ranges from yellow to red.
(§5) Plating media from Example 10 were examined under 366 nm UV irradiation at 16, 20, 24 and 48 hours for fluorescence by means of Digistore 2 Image documentation system (CAMAG). Loops of bacterial cells, grown for 48 hours on Nutrient Agar plates containing 150 mg/l beta-D-galactosidase indicator and 100 mg/l IPTG, were directly streaked into wells of black clear bottom microtiter plates. Fluorescence scans were recorded on a Spectramax M5 (Molecular Devices).

[4] = test system: beta-galactosidase negative Salmonella enteritidis (RKI 05/07992); type: cell-based; details: S. enteritidis (b-gal negative), 24 h, 150 mg/l substrate and 100 mg/l IPTG; for F: Fluorescence of colonies (strength): 366 nm UV; as to all read-outs here: key: −: absent; +/−: weak; +: strong; ++: very strong
Description: as §2, §3, §4, §5

Candida krusei = assay: IO staining of fungal colonies; type: cell-based; details: Candida krusei strain 305, galactosamidase −; agar plates containing indicator; as to growth: key: −: absent; +/−: weak/variable; +: strong
Description: (§6) Agar base (6 g/l soytone, 1.5 g/l yeast extract, 1 g/l glucose, 10 mM sodium phosphate buffer, 13 g/l agar, pH 7.0) was autoclaved and allowed to cool to 50° C. Then 1 mM MnSO4, 1 g/l N-Acetyl-D-galactosamine and: 1-(2-benzoylphenyl)-6-chloro-1H-indol-3-yl-N-acetyl-beta-D-galactosaminide (I21g) were added to final concentrations of 0.64 mM (from a 50 mM stock solution in DMF) and plates poured. Plates were inoculated with Candida albicans, Candida krusei and Saccharomyces cerevisiae and incubated at 37° C. for 48 hours.

Saccharomyces cerevisiae = assay: IO staining of fungal colonies; type: cell-based; details: Saccharomyces cerevisiae strain 306, galactosamidase −; agar plates containing indicator; as to growth: key: −: absent; +/−: weak/variable; +: strong
Description: as §6

Candida albicans = assay: IO staining of fungal colonies; type: cell-based; as to growth: key: −: absent; +/−: weak/variable; +: strong
Description: as §6

pig liver esterase = assay: Indication of carbamate hydrolysis by esterase; type: biochemical; details: prolonged exposure to pig liver esterase
[5] = Indication of carbamate hydrolysis by alkali; details: short treatment with 1N aqueous NaOH solution
[6] = Indication of disulfide reduction by TCEP
[7] = Reaction of MDAB with active signalogens (aldol donor properties); details: presence of MDAB, absence of oxygen
[8] = Candida albicans strain 304, galactosamidase +, agar plates containing indicator

Row | Structure (SMILES) | Effectiveness of indicator system with MDAB under aerobic conditions (Eschericha coli (NM1)) | colonial morphology, aerobic conditions [2] | F: Fluorescence of colonies (colour) [3] | C: Color of colonies (colour of stain) [3] | G: Growth of colonies [3] | L: Localization of stain on colonies [3] | F: Fluorescence of colonies (strength) [3] | C: Color of colonies (strength) [3] | C: Color of colonies (strength) [4] | F: Fluorescence of colonies (strength) [4] | further results
1 | O=C1c2ccccc2-n2c1c(O)c1ccccc12 [IO10, 11-Hydroxy-10H-indolo[1,2-a]indol-10-one] |  |  |  |  |  |  |  |  |  |  | Solubility in water [1]: freely soluble; also recorded: readily water-soluble
2 | OC[C@H]1O[C@@H](Oc2cn(-c3ccccc3)c3cc(Cl)ccc23)[C@H](O)[C@@H](O)[C@H]1O [Indicator I9a, 6-Chloro-1-phenyl-1H-indol-3-yl-beta-D-galactopyranoside] | effective | Cream colored colonies |  |  |  |  |  |  |  |  | colonial morphology, aerobic conditions (Eschericha coli (NM1)): Red colored colonies
3 | COC(=O)c1ccccc1-n1cc(O[C@@H]2O[C@H](CO)[C@H](O)[C@H](O)[C@H]2O)c2ccccc21 [Indicator I10a, 1-[2-(Methoxycarbonyl)phenyl]-1H-indol-3-yl-beta-D-galactopyranoside] | effective | Cream colored colonies | green | yellow-green | + | − | + | + | − | − | 
4 | COC(=O)c1ccccc1-n1cc(O[C@@H]2O[C@H](CO)[C@H](O)[C@H](O)[C@H]2O)c2ccc(Cl)cc21 [Indicator I11a, 6-Chloro-1-[2-(methoxycarbonyl)phenyl]-1H-indol-3-yl-beta-D-galactopyranoside] | effective | Cream colored colonies | green | yellow-green | + | − | + | + | − | − | 
5 | COC(=O)c1ccccc1-n1cc(O[C@@H]2O[C@H](CO)[C@H](O)[C@H](O)[C@H]2O)c2c(Cl)c(Br)ccc21 [Indicator I12a, 5-Bromo-4-chloro-1-[2-(methoxycarbonyl)phenyl]-1H-indol-3-yl-beta-D-galactopyranoside] | effective | Cream colored colonies | green | yellow-green | + | − | +/− | +/− | − | − | colonial morphology, aerobic conditions (Eschericha coli (NM1)): Brown colored colonies
6 | CC(=O)N[C@H]1[C@H](Oc2cn(-c3ccccc3C(=O)c3ccccc3)c3cc(Cl)ccc23)O[C@H](CO)[C@H](O)[C@@H]1O [Indicator I21g, 1-(2-Benzoylphenyl)-6-chloro-1H-indol-3-yl-N-acetyl-beta-D-galactosaminide] |  |  |  |  |  |  |  |  |  |  | Color (Candida krusei): Cream; Growth (Candida krusei): +/−; Color (Saccharomyces cerevisiae): Cream; Growth (Saccharomyces cerevisiae): +/−; Color (Candida albicans; [8]): Yellow; Growth (Candida albicans; [8]): +/−; Color of fungal colonies producing matching external stimulus (Candida albicans; D-galactosamidase biomarker of Candida albicans): bright yellow
7 | CCNC(=O)Oc1cn(-c2ccccc2C(=O)c2ccccc2)c2ccccc12 [Indicator I32, 1-(2-Benzoylphenyl)-1H-indol-3-yl ethyl carbamate] |  |  |  |  |  |  |  |  |  |  | Signal on carbamate hydrolysis by esterase (pig liver esterase): yellow precipitate; Signal on alkaline carbamate hydrolysis [5]: yellow precipitate
8 | CC(=O)c1ccccc1-n1cc(SSc2cn(-c3ccccc3C(C)=O)c3ccccc23)c2ccccc21 [Indicator I33, Bis[1-(2-acetylphenyl)-1H-indol-3-yl]-disulfane] |  |  |  |  |  |  |  |  |  |  | Signal on disulfide reduction, alkaline conditions ([6]; alkaline conditions (1 N aqueous sodium hydroxide)): the solution turned yellow; Signal on disulfide reduction, neutral conditions ([6]; neutral conditions): no detectable signal
9 | Sc1c[nH]c2ccccc12 [aS7, 1H-Indol-3-thiol] |  |  |  |  |  |  |  |  |  |  | Aldol product / color formed with MDAB [7]: the expected violet color appeared only under strongly acidic conditions; Aldol product / color formed with MDAB ([7]; listed as 3-mercaptoindole): did produce the characteristic pink dye (BI7) under strongly acidic conditions
